The target in assay [1] is T1, GPR119 (Homo sapiens, UniProt Q8TDV5).
T1 sequence (Q8TDV5 1-335): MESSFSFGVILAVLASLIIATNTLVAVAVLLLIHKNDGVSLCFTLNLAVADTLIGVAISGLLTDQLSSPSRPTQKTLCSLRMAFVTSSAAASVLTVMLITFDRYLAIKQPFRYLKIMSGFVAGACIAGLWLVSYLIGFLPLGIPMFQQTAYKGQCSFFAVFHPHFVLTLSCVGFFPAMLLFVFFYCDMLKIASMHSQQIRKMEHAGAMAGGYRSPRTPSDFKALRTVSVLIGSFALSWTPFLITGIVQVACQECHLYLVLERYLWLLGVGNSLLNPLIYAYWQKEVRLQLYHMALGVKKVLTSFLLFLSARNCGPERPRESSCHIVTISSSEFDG
Nature of the assay: cAMP accumulation in heterologous expression system, positive control agonist. It counts as cell-based. For orientation: Cyclic AMP is a second messenger, typically raised through Gs and lowered through Gi signalling.

The target of assay [2] is T1, GPR119. Nature of the assay: cAMP accumulation in heterologous expression system; PathHunter β-arrestin […] recruitment (EC50 =[…]). It counts as cell-based.

Experimental findings from publication PMC12849875, “CYP4X1/sEH‐Dependent Endocannabinoid Metabolism Drives Fibroblast‐Mediated Immunosuppression to Limit Immunotherapy in Colon Cancer” (Advanced Science, 2025) are described below.

`CCCCCCCC/C=C\CCCCCCCC(=O)NCCO` [OEA]: in assay [1], the “cAMP accumulation in heterologous expression system, positive control agonist” value is “OEA, the most potent endogenous agonist of GPR119, was used as the positive control”.
`CCCCCC1OC1C/C=C\C/C=C\C/C=C\CCCC(=O)NCCO` (centres unmarked) [14,15-EET-EA] registered an EC50 in assay [2] of 3.74 µM.

What is called EC50 is the concentration needed to bring the measured effect to its halfway point. The low end stands for higher potency in that assay, the high end for lower potency in that assay.
